Results from ChEMBL document CHEMBL1201862, “PubChem BioAssay data set” (2004).
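1) Cells in 96-well plates. 2) Compound, 48 h, 5 concentrations. 3) Linear interpolation between surrounding doses. 4) Unreached endpoint = highest concentration. The concentration for 50% growth inhibition is given as GI50.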 Activity calls are given as the source filed them. Cut-off read from the data, not from the text of the source: active = GI50 up to about 1.1 µM and inactive = higher.

What was measured:
Assay in all cases: inhibition of tumour cell growth, NCI panel, 48 h
NCI/ADR-RES = tested on: NCI/ADR-RES
A549 = tested on: A549
NCI-H522 = tested on: NCI-H522
OVCAR-8 = tested on: OVCAR-8
HCC 2998 = tested on: HCC 2998
SF-268 = tested on: SF-268
OVCAR-4 = tested on: OVCAR-4
CAKI-1 = tested on: CAKI-1
PC-3 = tested on: PC-3
MDA-MB-435 = tested on: MDA-MB-435
OVCAR-5 = tested on: OVCAR-5
CCRF-CEM = tested on: CCRF-CEM
MCF7 = tested on: MCF7
SR = tested on: SR
MDA-MB-231 = tested on: MDA-MB-231
EKVX = tested on: EKVX
SK-MEL-5 = tested on: SK-MEL-5
COLO 205 = tested on: COLO 205
MDA-N = tested on: MDA-N

Measured: GI50

COC(=O)C(C(=O)C(=O)Nc1c(C)cccc1C(C)(C)C)c1nc2ccc(Cl)cc2nc1O (configuration not stated)
inactive: NCI/ADR-RES > 100 µM | A549 > 100 µM | NCI-H522 94.2 µM | OVCAR-8 > 100 µM | HCC 2998 > 100 µM | SF-268 > 100 µM | OVCAR-4 > 100 µM | CAKI-1 > 100 µM | PC-3 > 100 µM | MDA-MB-435 > 100 µM | OVCAR-5 > 100 µM | CCRF-CEM > 100 µM | MCF7 > 100 µM | SR > 100 µM | MDA-MB-231 > 100 µM | EKVX 49.8 µM | SK-MEL-5 > 100 µM

COc1ccc(-c2cc(=O)c3c(O)c(OC)c(OC)c(OC)c3o2)cc1OC [5-DEMETHYLNOBILETIN]
inactive: NCI/ADR-RES 14.5 µM | COLO 205 > 100 µM | A549 > 100 µM | NCI-H522 8.97 µM | OVCAR-8 > 100 µM | HCC 2998 > 100 µM | SF-268 10.1 µM | OVCAR-4 > 100 µM | CAKI-1 > 100 µM | PC-3 > 100 µM | OVCAR-5 > 100 µM | CCRF-CEM > 100 µM | MDA-N > 100 µM | MCF7 > 100 µM | SR > 100 µM | MDA-MB-231 > 100 µM | EKVX > 100 µM | SK-MEL-5 27.4 µM

COc1ccccc1Nc1nc(NNC(=O)Cc2ccccc2)nc(NNC(=O)c2ccncc2)n1
inactive: NCI/ADR-RES > 10 µM | COLO 205 > 10 µM | A549 > 10 µM | OVCAR-8 > 10 µM | HCC 2998 > 10 µM | SF-268 > 10 µM | OVCAR-4 > 10 µM | CAKI-1 > 10 µM | CCRF-CEM > 10 µM | MDA-N > 10 µM | MCF7 > 10 µM | SR > 10 µM | MDA-MB-231 > 10 µM | EKVX > 10 µM | SK-MEL-5 > 10 µM

Nc1nc(O)c2ncn([C@H]3CC[C@@H](CO)O3)c2n1
inactive: NCI/ADR-RES > 100 µM | COLO 205 > 100 µM | OVCAR-8 > 100 µM | OVCAR-4 > 100 µM | CAKI-1 > 100 µM | PC-3 > 100 µM | MDA-MB-435 > 100 µM | OVCAR-5 > 100 µM | CCRF-CEM > 100 µM | MDA-N > 100 µM | MCF7 > 100 µM | SR > 100 µM | SK-MEL-5 > 100 µM

CC1=C(C(=O)NCCc2ccccc2)CC(C(=O)NCCc2ccccc2)=C(C)N1
inactive: NCI/ADR-RES > 100 µM | COLO 205 > 100 µM | A549 > 100 µM | NCI-H522 47.4 µM | OVCAR-8 > 100 µM | HCC 2998 > 100 µM | SF-268 61 µM | OVCAR-4 > 100 µM | CAKI-1 > 100 µM | PC-3 37.2 µM | MDA-MB-435 > 100 µM | OVCAR-5 > 100 µM | CCRF-CEM 27.8 µM | MCF7 > 100 µM | MDA-MB-231 > 100 µM | EKVX 65.3 µM

O=C(CNC(=O)c1ccccc1)Oc1c(Cl)c(Cl)c(Cl)c(Cl)c1Cl
inactive: NCI/ADR-RES 31 µM | COLO 205 35 µM | A549 29 µM | NCI-H522 29.6 µM | OVCAR-8 22.1 µM | HCC 2998 27.7 µM | SF-268 40.6 µM | OVCAR-4 45.5 µM | CAKI-1 25.8 µM | PC-3 24.7 µM | MDA-MB-435 36.1 µM | OVCAR-5 47.2 µM | CCRF-CEM 38.7 µM | MCF7 40.2 µM | SR 32.4 µM | MDA-MB-231 22.9 µM | EKVX 21.5 µM

O=c1cc2ccccc2nn1Cc1ccccc1Cl
inactive: COLO 205 > 100 µM | A549 > 100 µM | OVCAR-8 > 100 µM | HCC 2998 > 100 µM | SF-268 > 100 µM | OVCAR-4 > 100 µM | CAKI-1 > 100 µM | OVCAR-5 > 100 µM | CCRF-CEM > 100 µM | EKVX > 100 µM | SK-MEL-5 > 100 µM

Nc1ccc(S(=O)(=O)C23CC4CC(CC(C4)C2)C3)cc1
inactive: NCI/ADR-RES > 100 µM | COLO 205 74.1 µM | A549 > 100 µM | NCI-H522 > 100 µM | OVCAR-8 > 100 µM | HCC 2998 > 100 µM | SF-268 > 100 µM | CAKI-1 > 100 µM | PC-3 51.5 µM | MDA-MB-435 72.9 µM | OVCAR-5 > 100 µM | CCRF-CEM 49.8 µM | MCF7 > 100 µM | SR 61.7 µM | MDA-MB-231 > 100 µM | EKVX > 100 µM | SK-MEL-5 4.49 µM

CN1CCN(CCCN2c3ccccc3Sc3ccc(C(F)(F)F)cc32)CC1
inactive: NCI/ADR-RES 8.22 µM | A549 10.2 µM | OVCAR-8 13.1 µM | SF-268 7.78 µM | OVCAR-4 8.81 µM | CAKI-1 9.64 µM | PC-3 4.58 µM | MDA-MB-435 2.92 µM | OVCAR-5 11.2 µM | MDA-N 3.2 µM | MCF7 4.61 µM | EKVX 10.6 µM | SK-MEL-5 1.91 µM

CO/N=C(\C(=O)O/C(=N/C1CCCCC1)NC1CCCCC1)c1csc(NC(c2ccccc2)(c2ccccc2)c2ccccc2)n1
inactive: NCI/ADR-RES > 10 µM | COLO 205 > 10 µM | A549 > 10 µM | NCI-H522 > 10 µM | OVCAR-8 > 10 µM | HCC 2998 > 10 µM | SF-268 > 10 µM | OVCAR-4 > 10 µM | CAKI-1 > 10 µM | PC-3 > 10 µM | OVCAR-5 > 10 µM | CCRF-CEM > 10 µM | MDA-N > 10 µM | MCF7 > 10 µM | SR > 10 µM | EKVX > 10 µM | SK-MEL-5 > 10 µM

O=NN1CCCS1(=O)=O
inactive: NCI/ADR-RES > 100 µM | COLO 205 > 100 µM | A549 > 100 µM | OVCAR-8 > 100 µM | HCC 2998 > 100 µM | SF-268 > 100 µM | OVCAR-4 > 100 µM | CAKI-1 > 100 µM | PC-3 > 100 µM | OVCAR-5 > 100 µM | CCRF-CEM > 100 µM | MCF7 > 100 µM | SR > 100 µM | MDA-MB-231 > 100 µM | EKVX > 100 µM | SK-MEL-5 > 100 µM

Cc1cc(S(=O)(=O)Nc2nc(N)nc(N(C)C)n2)c(SCC(=O)O)cc1Cl
inactive: NCI/ADR-RES > 10 µM | COLO 205 > 10 µM | A549 > 10 µM | NCI-H522 > 10 µM | OVCAR-8 > 10 µM | HCC 2998 > 10 µM | SF-268 > 10 µM | OVCAR-4 > 10 µM | CAKI-1 > 10 µM | PC-3 > 10 µM | OVCAR-5 > 10 µM | CCRF-CEM > 10 µM | MDA-N > 10 µM | MCF7 > 10 µM | SR > 10 µM | EKVX > 10 µM | SK-MEL-5 > 10 µM
